Results reported in US8623909B2, “Prophylactic/therapeutic agents for lifestyle-related diseases” (priority 2008, dated 2014).
Marks after values point to notes of the source that are not given here.

Key:
Assay type in all cases: in vivo, rat
ORX rats [1] = assay: Total plasma adiponectin level in ORX rats; details: for Plasma adiponectin concentration: solvent 2.2, sham 1.3
Experimental: (§1) 11-week-old, male Sprague-Dawley (SD) rats (320 to 340 g, purchased from Charles River Japan) were housed for 1 week in a room maintained at a light-dark cycle of 12 hours per day and controlled at a set temperature and humidity while allowing free access to a commercially available standard rodent diet and water.
(§2) After housing the animals, the animals were anesthetized with ether, and underwent bilateral orchiectomy (orchiectomized rats: ORX) or a sham treatment. After awaking from the anesthesia, the animals were assigned to test groups of 3 to 5 animals each. Starting on the day after surgery, the animals were subcutaneously injected once a day with an injection solution of the test compound (prepared by dissolving the test compound in a small amount of DMSO and diluting with olive oil for animal testing (consisting of 95% olive oil and 5% DMSO)) at the rate of 0.1 ml/100 g of body weight. After 21 days, the rats were sacrificed by exsanguination from the abdominal artery, the ventral prostates and anal levator muscle were excised and weighed followed by immersing in RNAlater (Nacalai Tesque) for extraction of RNA. In addition, soft tissue was removed from the right femur, and immersed in 75% ethanol followed by storage for subsequent measurement of the bone mineral density. Moreover, liver and visceral fat tissue were collected and immersed in RNAlater for RNA extraction.
(§3) The inventors of the present invention measured total plasma adiponectin levels in ORX rats treated in the aforementioned section (4)-1). Plasma insulin levels were also measured simultaneously.

ORX rats [2] = assay: Femoral bone mineral density in ORX rats; details: solvent 465.3, sham 517.1
Experimental: as §1, §2
(§4) The anabolic effect of compounds was studied by using as indicators changes in anal levator muscle weight and bone mineral density (BMD) of the femur and vertebra in the ORX rats treated in the aforementioned section (4)-1).
(§5) BMD value of epiphyseal cancellous bone of the femur and vertebra of ORX rats treated in the aforementioned section (4)-1) were measured using Scan Xmate-A100S (Comscantecno).

ORX rats [3] = assay: Anal levator muscle weight in ORX rats (anabolic effect); details: for Anal levator muscle weight: 21 days, solvent 41.6, sham 73.1; for Change in anal levator muscle weight (in words): dihydrotestosterone 1 and 10 mg/kg, compound of formula (Ia) 10 mg/kg
Experimental: as §1, §2, §4
Anal levator muscle is a typical skeletal muscle localized around the rat rectum, and is considered to be sensitive to male steroid hormone. Although the anal levator muscle is considerably smaller in castrated rats as compared with normal male rats, its weight is well known to be able to be restored to normal by administration of androgen (J. Pharmacol. Exp. Ther., 91, 38-44). The results of measuring the weights of the anal levator muscle in the ORX rats obtained in section (4)-1) are shown in the following Table 7.

ORX rats [4] = assay: Plasma FSH concentration in ORX rats; details: for Plasma FSH concentration: solvent 44.1, sham 12.1; for Effect on FSH levels (in words): dose of 1 or 10 mg/kg
Text: as §2, with “Starting on the day after surgery, the animals were subcutaneously injected once a day with an injection solution of the test compound (prepared by dissolving the test compound in a small amount of DMSO and diluting with olive oil for animal testing (consisting of 95% olive oil and 5% DMSO)) at the rate of 0.1 ml/100 g of body weight.” left out
(§6) Characteristics of the effect of compounds on the pituitary gland were investigated by measuring plasma concentrations of LH and FSH in ORX rats treated in the aforementioned section (4)-1).

ORX rats [5] = assay: Plasma LH concentration in ORX rats; details: for Plasma LH concentration: solvent 10.3, sham 1.7; for Effect on LH levels (in words): 1 and 10 mg/Kg
Text: as §2, with “Starting on the day after surgery, the animals were subcutaneously injected once a day with an injection solution of the test compound (prepared by dissolving the test compound in a small amount of DMSO and diluting with olive oil for animal testing (consisting of 95% olive oil and 5% DMSO)) at the rate of 0.1 ml/100 g of body weight.” left out
as §6

PPARδ mRNA = PPARδ mRNA in anal levator muscle of ORX rats; details: for PPARδ mRNA/GAPDH mRNA in anal levator muscle: solvent 1.0, sham 0.5; for Effect on PPARδ mRNA expression in anal levator muscle (in words): dihydrotestosterone 1 and 10 mg/kg, compound of formula (Ia) 10 mg/kg
Experimental: as §1, §2
(§7) Total RNA in various tissues of the ORX rats was isolated using the RNeasy Mini Kit or RNeasy Fibrous Tissue Mini Kit (Qiagen). 1 μg of this total RNA was subjected to reverse transcription using the QuantiaTect Reverse Transcription Kit (Qiagen). Next, cDNA was subjected to real-time PCR analysis using LightCycler (Roche Diagnostics) and each of the transcription products was quantified. Furthermore, PCR was carried out in 20 μl of a reaction mixture under the following conditions using SYBR Premix Ex Taq (Takara Biotechnology): 50 cycles consisting of denaturation for 5 seconds at 95° C., annealing for 20 seconds at 60° C. and elongation for 25 seconds at 72° C. In addition, glyceraldehyde-3-phosphate dehydrogenase (GAPDH) mRNA was simultaneously amplified as an internal standard, and the real-time PCR value of each transcription product were calculated as a relative value based on GAPDH.
In addition, expression levels of peroxisome proliferator activating factor receptor-delta (PPARδ) mRNA in anal levator muscle were also measured. This is because this nuclear receptor has been indicated to be related to β-oxidation of fatty acids and energy consumption in skeletal muscle (Proc. Natl. Acad. Sci. USA, 100, 15924-15929). Furthermore, measurements were carried out using a similar method as that previously described.

ORX rats [6] = assay: Vertebral bone mineral density in ORX rats; details: for Vertebral BMD: solvent 762.7, sham 770.8
Experimental: as §1, §2, §4, §5

ORX rats [7] = assay: Plasma cholesterol level in ORX rats; details: for Plasma cholesterol concentration: solvent 78.0, sham 64.8; for Effect on cholesterol levels (in words): 1 and 10 mg/Kg
Text: as §2, with “Starting on the day after surgery, the animals were subcutaneously injected once a day with an injection solution of the test compound (prepared by dissolving the test compound in a small amount of DMSO and diluting with olive oil for animal testing (consisting of 95% olive oil and 5% DMSO)) at the rate of 0.1 ml/100 g of body weight.” left out
Plasma triglyceride and cholesterol levels were measured to characterize the metabolic profiles of ORX rats treated in the aforementioned section (4)-1).

ORX rats [8] = assay: Plasma insulin level in ORX rats; details: for Plasma insulin concentration: solvent 1.0, sham 1.6; for Effect on insulin levels (in words): 1 and 10 mg/Kg
Text: as §2, with “Starting on the day after surgery, the animals were subcutaneously injected once a day with an injection solution of the test compound (prepared by dissolving the test compound in a small amount of DMSO and diluting with olive oil for animal testing (consisting of 95% olive oil and 5% DMSO)) at the rate of 0.1 ml/100 g of body weight.” left out
as §3

CPT-1 mRNA = CPT-1 mRNA level in liver and visceral fat of ORX rats
Text: as §2, with “Starting on the day after surgery, the animals were subcutaneously injected once a day with an injection solution of the test compound (prepared by dissolving the test compound in a small amount of DMSO and diluting with olive oil for animal testing (consisting of 95% olive oil and 5% DMSO)) at the rate of 0.1 ml/100 g of body weight.” left out
as §7
In addition, mRNA levels of insulin receptor substrate 2 (IRS-2) in the liver were also measured.

[9] = liver, 1 mg/Kg, solvent 1.4, sham 1.0
[10] = liver, 10 mg/Kg, solvent 1.4, sham 1.0
[11] = visceral fat, 1 mg/Kg, solvent 1.7, sham 1.0
[12] = visceral fat, 10 mg/Kg, solvent 1.7, sham 1.0

Row | Compound | Femoral BMD (ORX rats [2]; 1 mg/Kg) [mg/mL] | Femoral BMD (ORX rats [2]; 10 mg/Kg) [mg/mL] | Anal levator muscle weight (ORX rats [3]; 1 mg/Kg s.c. once a day) | Anal levator muscle weight (ORX rats [3]; 10 mg/Kg s.c. once a day) | Change in anal levator muscle weight (in words) (ORX rats [3]) | Effect on FSH levels (in words) (ORX rats [4]) | Effect on LH levels (in words) (ORX rats [5]) | PPARδ mRNA/GAPDH mRNA in anal levator muscle (PPARδ mRNA; 1 mg/Kg) | PPARδ mRNA/GAPDH mRNA in anal levator muscle (PPARδ mRNA; 10 mg/Kg) | Effect on PPARδ mRNA expression in anal levator muscle (in words) (PPARδ mRNA) | Vertebral BMD (ORX rats [6]; 1 mg/Kg) [mg/mL] | Vertebral BMD (ORX rats [6]; 10 mg/Kg) [mg/mL] | Effect on cholesterol levels (in words) (ORX rats [7]) | Effect on insulin levels (in words) (ORX rats [8]) | CPT-1 mRNA/GAPDH mRNA level (CPT-1 mRNA; [9]) | CPT-1 mRNA/GAPDH mRNA level (CPT-1 mRNA; [10]) | CPT-1 mRNA/GAPDH mRNA level (CPT-1 mRNA; [11]) | CPT-1 mRNA/GAPDH mRNA level (CPT-1 mRNA; [12]) | other results
1 | CC(=O)[C@H]1CCC2C3CCc4c(C)cccc4C3CC[C@@]21C (stereo partly drawn) [Compound of formula (Ia)] | 447.2 | 454.0 | 59.1^ mg/100 g body weight | 66.2* mg/100 g body weight | increased significantly to a similar level to that observed in the sham treatment group | did not have any effect on FSH | did not inhibit LH levels, but rather increased LH levels dose-dependently | 0.9 | 1.7* | enhanced this expression | 769.5 | 770.3 | did not have an effect on cholesterol levels | this activity was milder | 3.2**^,# | 4.2* | 2.0 | 2.6 | Plasma adiponectin concentration (ORX rats [1]; 1 mg/Kg): 2.2* μg/mL; Plasma adiponectin concentration (ORX rats [1]; 10 mg/Kg): 2.1* μg/mL; Effect on castration-induced increase of plasma adiponectin (in words) (ORX rats [1]; 1 or 10 mg/kg): did not demonstrate such inhibitory activity on the adiponectin levels; Femoral BMD (ORX rats [2]; 30 mg/Kg): 475.9 mg/mL; Plasma FSH concentration (ORX rats [4]; 1 mg/Kg): 48.7* ng/mL; Plasma FSH concentration (ORX rats [4]; 10 mg/Kg): 46.3* ng/mL; Plasma LH concentration (ORX rats [5]; 1 mg/Kg): 12.6** ng/mL; Plasma LH concentration (ORX rats [5]; 10 mg/Kg): 19.9*^,## ng/mL; Vertebral BMD (ORX rats [6]; 30 mg/Kg): 775.1 mg/mL; Plasma cholesterol concentration (ORX rats [7]; 1 mg/Kg): 66.0 mg/dL; Plasma cholesterol concentration (ORX rats [7]; 10 mg/Kg): 71.5 mg/dL; Plasma insulin concentration (ORX rats [8]; 1 mg/Kg): 1.5 µg/mL; Plasma insulin concentration (ORX rats [8]; 10 mg/Kg): 2.9 µg/mL; CPT-1 mRNA levels (in words) (CPT-1 mRNA; liver and visceral fat): higher in comparison with dihydrotestosterone
2 | C[C@]12CCC(=O)C[C@@H]1CC[C@@H]1[C@@H]2CC[C@]2(C)[C@@H](O)CC[C@@H]12 [Dihydrotestosterone, 5α-dihydrotestosterone, reference compound] | 472.0 | 473.6 | 93.8^## mg/100 g body weight | 120.6**^,## mg/100 g body weight | weights increased beyond those in the case of the sham treated rats | inhibited to levels observed in the untreated control group | inhibited LH levels | 0.9 | 0.5 | inhibited this expression dose-dependently | 768.4 | 763.2 | lowered cholesterol levels | increased the insulin levels | 1.3 | 0.4 | 1.7 | 0.8 | Effect on vertebral BMD (in words) (ORX rats [6]; 1 and 10 mg/Kg): did not have an effect on vertebral BMD
